According to patent US20040053842A1, “Methods of treatment with CETP inhibitors and antihypertensive agents” (Pfizer Inc., priority 2002, published 2004):

Assay: aqueous solubility
Assay type: physicochemical
Conditions: aqueous environments

CCOC(=O)N1c2ccc(C(F)(F)F)cc2[C@@H](N(Cc2cc(C(F)(F)F)cc(C(F)(F)F)c2)C(=O)OC)C[C@H]1CC [torceptrapib, [2R,4S]-4-[(3,5-bis-trifluoromethyl-benzyl)-methoxycarbonyl-amino]-2-ethyl-6-trifluoromethyl-3,4-dihydro-2H-quinoline-1-carboxylic acid ethyl ester]
solubility: < 0.04 µg/mL
